The source of these data is patent US20050159476A1, “Pharmaceutical composition for preventing or treating respiratory disease” (Chugai Seiyaku Kabushiki Kaisha, priority 2002, published 2005).

Assay type in all cases: cell-based
Assay [1] relates to human A549 cells. As to the kind of experiment: Protective effect against cell injury induced by oxidized LDL in human A549 cells (LDH leakage). As to conditions: for inhibition at 3 µM / inhibition at 30 µM: Homo sapiens, oxidized LDL 100 μg/mL, 24 hours, average ± standard error; for inhibition at 3 µM: 3 μmol/L test compound; for inhibition at 30 µM: 30 μmol/L test compound. The method, then:
(§1) Oxidized LDL was prepared by maintaining 1 mg/mL of rabbit LDL at 37° C for 24 hours in PBS (-) containing 10 μmol/L CUSO4.
Human A549 cells used in this test are available under accession number ATCC-CCL-185 and have the properties of type II alveolar epithelial cells (Lieber M, Smith B, Szakal A, Nelson-Rees W, Todaro G., A continuous tumor-cell line from a human lung carcinoma with properties of type II alveolar epithelial cells. Int J Cancer Jan. 15, 1976; 17(1):62-70).
(§2) These cells were dispersed in F12K medium containing 10% FBS and plated on a 24-well plate at 2.5×10^4 cells/500 μL/well. These cells were incubated at 37° C. for 18 hours and then the medium was replaced by F12K medium containing 2% FBS. At this time, 2.5 μL of a solution or a suspension of each test compound in ethanol was added at the concentrations of the test compound of 3 μmol/L and 30 μmol/L in each well.
(§3) After incubation at 37° C. for 6 hours, 50 μL of a suspension of oxidized LDL was added per well at the concentration of oxidized LDL of 100 μg/mL in each well.
(§4) After incubation at 37° C. for 24 hours, 200 μL of the supernatant was collected from each well and the amount of lactate dehydrogenase (LDH) leaked from cells was determined by the SFBC method.
(§5) Further test was carried out in the same manner as the above test with the exception that each test compound was added to the cell culture after incubation for 6 hours following medium replacement and immediately before oxidized LDL was added thereto rather than when the medium was replaced with F12K medium containing 2% FBS.
(§6) Higher LDH levels in the supernatant indicate that greater cell injury is induced by oxidized LDL. Separately, one experiment was carried out using a well in the same manner as the above test with the exception that no test compound was added to the well. The level of LDH in this well was defined as 0% cell protection. In addition, other experiment was carried out using another well without adding either test compound or oxidized LDL but with adding saline instead. The level of LDH in this well was defined as 100% cell protection. These levels of LDH were used for calculating cell protection of each test compound used in the above test.
Probucol and α-tocopherol were tested for comparison with the compounds of the present invention. In this test, the test compounds were added to the cell culture after incubation for 6 hours following medium replacement and immediately before oxidized LDL was added.

In assay [2] the test system is normal human bronchial/tracheal epithelial cells (NHBE w/RA). As to the kind of experiment: Protective effect against cell injury induced by oxidized LDL in normal human bronchial/tracheal epithelial cells (LDH leakage). As to conditions: 24 h, average ± standard error; for inhibition at 3 µM: 3 μmol/L test compound; for inhibition at 30 µM: 30 μmol/L test compound. How it is done:
as §1, §2, §3, §4, §5, §6
This test example was carried out in a similar manner to test example 1 except that human A549 cells were replaced with normal human bronchial/tracheal epithelial cells (NHBE w/RA: BioWhittaker Co.), cell culture medium was changed from F12K medium containing 10% FBS to BEGM® medium, and the replacement of medium was not made.

Assay [3] relates to human A549 cells. As to the kind of experiment: Protective effect against cell injury induced by t-butyl hydroperoxide in human A549 cells. As to conditions: t-BuOOH in saline in each well.
The mark [4] stands for this setting: read-out: % Cell protection in the case where oxidized LDL was added 6 hrs after adding test compound.
The mark [5] stands for this setting: read-out: % Cell protection in the case where oxidized LDL was added immediately after adding test compound.

Where two headings read alike, the source gives them in different places.

Regarding `CCCCCC1(CCCCC)Cc2c(cc(C(C)(C)C)c(O)c2C(C)(C)C)O1` [Compound 3, 4,6-di-t-butyl-2,2-di-n-pentyl-5-hydroxy-2,3-dihydrobenzofuran], the inhibition at 3 µM in the assay on human A549 cells [1] (setting [4]) stood at 18.7 ± 2.1%; with human A549 cells [1] (setting [5]), 14.3 ± 2.3%; in assay [2] (setting [4]) it was 49.8 ± 6.4%; in assay [2] (setting [5]), 9.8 ± 3.3%. Moreover, the inhibition at 30 µM in the assay with human A549 cells [1] (setting [4]) came out at 95 ± 2.5%; with human A549 cells [1] (setting [5]), 85.4 ± 1.6%; in assay [2] (setting [4]), 70.8 ± 2%; in assay [2] (setting [5]), 66.2 ± 2.6%. The “% cell protection as a function of test compound concentration (FIG. 1)” value in the assay with human A549 cells [1] (test compound added immediately before oxidized LDL, Test Example 2) is “begins to sharply increase when the concentration of Compound 3 exceeds about 10 μmol/L”. In the assay on human A549 cells [3], the “inhibition of cell injury induced by t-butyl hydroperoxide (FIG. 2)” value was “inhibits cell injury”.
Regarding `CC(C)(C)c1cc2c(c(C(C)(C)C)c1O)CC1(CCCCCC1)O2` [Compound 7, 4,6-di-t-butyl-5-hydroxy-2,3-dihydrobenzofuran-2-spiro-1′-cycloheptane], the inhibition at 3 µM was 1.6 ± 6% with human A549 cells [1] (setting [4]), -0.8 ± 2.8% with human A549 cells [1] (setting [5]), 7.7 ± 3.6% in assay [2] (setting [4]) and 11.3 ± 1.1% in assay [2] (setting [5]). Also, the inhibition at 30 µM in the assay with human A549 cells [1] (setting [4]) came to 98.2 ± 2.1%; in the assay on human A549 cells [1] (setting [5]), 98.4 ± 1.1%; in assay [2] (setting [4]), 58.7 ± 5.1%; in assay [2] (setting [5]) it was 73.4 ± 0.4%.
Take `CC1(C(=O)O)Cc2c(cc(C(C)(C)C)c(O)c2C(C)(C)C)O1` (stereo not shown) [Compound 6, 4,6-di-t-butyl-5-hydroxy-2-methyl-2,3-dihydrobenzofuran-2-carboxylic acid]: the inhibition at 3 µM is 8.5 ± 0.8% in the assay with human A549 cells [1] (setting [4]), 9.1 ± 1.2% with human A549 cells [1] (setting [5]), -0.9 ± 1.8% in assay [2] (setting [4]) and 0.3 ± 2% in assay [2] (setting [5]). The inhibition at 30 µM in the assay on human A549 cells [1] (setting [4]) was determined as 65.3 ± 2.9%; in the assay with human A549 cells [1] (setting [5]), 46.7 ± 2.9%; in assay [2] (setting [4]), 44.8 ± 3.2%; in assay [2] (setting [5]), 30.3 ± 3.1%.
As to `CC1(C)Cc2c(cc(C(C)(C)C)c(O)c2C(C)(C)C)O1` [Compound 2, 4,6-di-t-butyl-5-hydroxy-2,2-dimethyl-2,3-dihydrobenzofuran], the inhibition at 3 µM worked out at 0.5 ± 1.3% in the assay on human A549 cells [1] (setting [4]), 16.9 ± 10.5% in the assay with human A549 cells [1] (setting [5]), 32.8 ± 2.9% in assay [2] (setting [4]) and 71.1 ± 1.3% in assay [2] (setting [5]). In addition, the inhibition at 30 µM amounted to 99.5 ± 1.1% with human A549 cells [1] (setting [4]), 100 ± 1.5% in the assay on human A549 cells [1] (setting [5]), 27.7 ± 2.7% in assay [2] (setting [4]) and 76.1 ± 3.4% in assay [2] (setting [5]).
As to `CC1(C)Cc2c(c(C(C)(C)C)cc(O)c2C(C)(C)C)O1` [Compound 16, 4,7-di-t-butyl-5-hydroxy-2,2-dimethyl-2,3-dihydrobenzofuran], the inhibition at 3 µM stood at 100.3 ± 1% in the assay with human A549 cells [1] (setting [4]), 99.1 ± 0.9% in the assay on human A549 cells [1] (setting [5]), 54.9 ± 3.4% in assay [2] (setting [4]) and 62.6 ± 1.6% in assay [2] (setting [5]). For the same compound, the inhibition at 30 µM with human A549 cells [1] (setting [5]) amounted to 98.4 ± 0.6%; in assay [2] (setting [5]), 42 ± 2.2%.
